Where only a bound is given, the exact number is not on record here.

Format in all cases: functional
Test [1] relates to Candida albicans. Description: Potentiation of fluconazole-induced anti-fungal activity against fluconazole-resistant Candida albicans isolate 103 assessed as fluconazole MIC80 at 4 ug/ml by checkerboard microdilution assay.
Test [2] concerns Candida albicans. Description: Potentiation of fluconazole-induced anti-fungal activity against fluconazole-resistant Candida albicans isolate 103 assessed as fluconazole MIC80 at 8 ug/ml by checkerboard microdilution assay.
Test [3] has as its system Candida albicans. The experiment in a line: Anti-fungal activity against fluconazole-resistant Candida albicans isolate 100 by microbroth dilution method.
Test [4] relates to Candida albicans. The experiment in a line: Anti-fungal activity against fluconazole-resistant Candida albicans isolate 103 by microbroth dilution method. In general terms: Broth dilution looks for growth in wells or tubes with falling amounts of substance.
Test [5] concerns Candida albicans. Description: Synergistic anti-fungal activity against fluconazole-resistant Candida albicans isolate 100 in presence of fluconazole by two-fold dilution method.
Test [6] has as its system Candida albicans. Description: Synergistic anti-fungal activity against fluconazole-resistant Candida albicans isolate 103 in presence of fluconazole by two-fold dilution method.
In test [7] the test system is Candida albicans. The experiment in a line: Potentiation of fluconazole-induced anti-fungal activity against fluconazole-resistant Candida albicans isolate 103 by two-fold dilution method.
Test [8] concerns Candida albicans. The experiment in a line: Potentiation of fluconazole-induced anti-fungal activity against fluconazole-resistant Candida albicans isolate 100 by two-fold dilution method.
Test [9] has as its system Candida albicans. Description: Potentiation of fluconazole-induced anti-fungal activity against fluconazole-resistant Candida albicans isolate 103 assessed as fluconazole MIC80 at 2 ug/ml by checkerboard microdilution assay.
Test [10] deals with Candida albicans. The experiment in a line: Potentiation of fluconazole-induced anti-fungal activity against fluconazole-resistant Candida albicans isolate 103 assessed as fluconazole MIC80 at 1 ug/ml by checkerboard microdilution assay.
In test [11] the test system is Candida albicans. Description: Potentiation of fluconazole-induced anti-fungal activity against fluconazole-resistant Candida albicans isolate 100 assessed as fluconazole MIC80 at 8 ug/ml by checkerboard microdilution assay.
The test system of test [12] is Candida albicans. The experiment in a line: Potentiation of fluconazole-induced anti-fungal activity against fluconazole-resistant Candida albicans isolate 100 assessed as fluconazole MIC80 at 4 ug/ml by checkerboard microdilution assay.
The subject of test [13] is Candida albicans. Description: Potentiation of fluconazole-induced anti-fungal activity against fluconazole-resistant Candida albicans isolate 100 assessed as fluconazole MIC80 at 2 ug/ml by checkerboard microdilution assay.
Test [14] deals with Candida albicans. The experiment in a line: Potentiation of fluconazole-induced anti-fungal activity against fluconazole-resistant Candida albicans isolate 100 assessed as fluconazole MIC80 at 1 ug/ml by checkerboard microdilution assay.
The subject of test [15] is Candida albicans. The experiment in a line: Potentiation of fluconazole-induced anti-fungal activity against fluconazole-resistant Candida albicans isolate 103 at 8 ug/ml by checkerboard microdilution assay.
The test system of test [16] is Candida albicans. Description: Potentiation of fluconazole-induced anti-fungal activity against fluconazole-resistant Candida albicans isolate 103 at 4 ug/ml by checkerboard microdilution assay.
For test [17], the system named is Candida albicans. Description: Potentiation of fluconazole-induced anti-fungal activity against fluconazole-resistant Candida albicans isolate 103 at 2 ug/ml by checkerboard microdilution assay.
For test [18], the system named is Candida albicans. The experiment in a line: Potentiation of fluconazole-induced anti-fungal activity against fluconazole-resistant Candida albicans isolate 103 at 1 ug/ml by checkerboard microdilution assay.
Test [19] relates to Candida albicans. Description: Potentiation of fluconazole-induced anti-fungal activity against fluconazole-resistant Candida albicans isolate 100 at 8 ug/ml by checkerboard microdilution assay.
In test [20] the test system is Candida albicans. Description: Potentiation of fluconazole-induced anti-fungal activity against fluconazole-resistant Candida albicans isolate 100 at 4 ug/ml by checkerboard microdilution assay.
The test system of test [21] is Candida albicans. The experiment in a line: Potentiation of fluconazole-induced anti-fungal activity against fluconazole-resistant Candida albicans isolate 100 at 2 ug/ml by checkerboard microdilution assay.
The subject of test [22] is Candida albicans. The experiment in a line: Potentiation of fluconazole-induced anti-fungal activity against fluconazole-resistant Candida albicans isolate 100 at 1 ug/ml by checkerboard microdilution assay.

`O=C(CCc1ccc2c(c1)OCO2)NCc1ccc(-c2ccccc2F)cc1`: the MIC80 (in general, an inhibitory concentration at the 80% level, which refers to growth in some studies and to a panel of isolates in others) with Candida albicans [1] was 0.063 µg/mL; in the test with Candida albicans [2], 0.031 µg/mL; in the test on Candida albicans [3] it was greater than 64 µg/mL; against Candida albicans [4], greater than 64 µg/mL; in the test with Candida albicans [5], 0.031 µg/mL; in the test with Candida albicans [6], 0.031 µg/mL. Further, the MIC80 worked out at 0.125 µg/mL in the test with Candida albicans [9]; 0.25 µg/mL in the test on Candida albicans [10]; 0.031 µg/mL in the test on Candida albicans [11]; 0.63 µg/mL with Candida albicans [12]; 0.125 µg/mL with Candida albicans [13]; 0.125 µg/mL with Candida albicans [14]. Besides, the “fractional inhibitory concentration index (FICI)” value with Candida albicans [7] is 0.063; in the test on Candida albicans [8], 0.063; with Candida albicans [15], 0.066; in the test on Candida albicans [16], 0.032; in the test with Candida albicans [17] it was 0.017; in the test with Candida albicans [18], 0.01. Moreover, the “fractional inhibitory concentration index (FICI)” value in the test with Candida albicans [19] is 0.066; with Candida albicans [20], 0.032; with Candida albicans [21], 0.017; with Candida albicans [22], 0.009.
As to `O=C(CCc1ccc2c(c1)OCO2)NCc1ccc(-c2ccc(F)cc2)cc1`, the MIC80 in the test with Candida albicans [1] is 0.125 µg/mL; with Candida albicans [2] it was 0.063 µg/mL; against Candida albicans [3] it was greater than 64 µg/mL; in the test on Candida albicans [4], greater than 64 µg/mL; in the test with Candida albicans [5], 0.031 µg/mL; in the test on Candida albicans [6] it was 0.063 µg/mL. For the same molecule, the MIC80 in the test on Candida albicans [9] stood at 0.25 µg/mL; in the test on Candida albicans [10], 0.25 µg/mL; with Candida albicans [11] it was 0.031 µg/mL; in the test on Candida albicans [12], 0.063 µg/mL; in the test with Candida albicans [13], 0.125 µg/mL; in the test on Candida albicans [14], 0.25 µg/mL. Also, the “fractional inhibitory concentration index (FICI)” value was determined as 0.063 in the test with Candida albicans [7]; 0.063 in the test on Candida albicans [8]; 0.064 in the test with Candida albicans [15]; 0.032 in the test on Candida albicans [16]; 0.018 with Candida albicans [17]; 0.01 in the test on Candida albicans [18]. For the same molecule, the “fractional inhibitory concentration index (FICI)” value is 0.064 with Candida albicans [19], 0.032 with Candida albicans [20], 0.017 in the test with Candida albicans [21] and 0.01 in the test on Candida albicans [22].
In the case of `Cc1ccc(-c2ccc(CNC(=O)CCc3ccc4c(c3)OCO4)cc2)cc1`, the MIC80 in the test with Candida albicans [1] is 1 µg/mL; with Candida albicans [2], 0.063 µg/mL; in the test with Candida albicans [3], greater than 64 µg/mL; against Candida albicans [4] it was greater than 64 µg/mL; with Candida albicans [5], 0.063 µg/mL; in the test on Candida albicans [6], 0.063 µg/mL. For the same molecule, the MIC80 came to 1 µg/mL in the test with Candida albicans [9]; 2 µg/mL with Candida albicans [10]; 0.063 µg/mL with Candida albicans [11]; 0.5 µg/mL in the test on Candida albicans [12]; 1 µg/mL in the test with Candida albicans [13]; 2 µg/mL in the test with Candida albicans [14]. Besides, the “fractional inhibitory concentration index (FICI)” value in the test with Candida albicans [7] was 0.063; in the test on Candida albicans [8], 0.063; in the test on Candida albicans [15], 0.063; in the test with Candida albicans [16] it was 0.039; with Candida albicans [17] it was 0.023; with Candida albicans [18] it was 0.023. For the same molecule, the “fractional inhibitory concentration index (FICI)” value stood at 0.063 in the test on Candida albicans [19], 0.035 with Candida albicans [20], 0.023 in the test with Candida albicans [21] and 0.023 in the test on Candida albicans [22].
For `COc1ccc2cc3[n+](cc2c1OC)CCc1cc2c(cc1-3)OCO2` [BERBERINE], the MIC80 is 1 µg/mL with Candida albicans [1]; 1 µg/mL with Candida albicans [2]; 32 µg/mL in the test with Candida albicans [3]; 32 µg/mL in the test on Candida albicans [4]; 1 µg/mL in the test on Candida albicans [5]; 1 µg/mL in the test on Candida albicans [6]. The MIC80 in the test on Candida albicans [9] was determined as 1 µg/mL; in the test on Candida albicans [10], 2 µg/mL; in the test on Candida albicans [11], 1 µg/mL; in the test with Candida albicans [12], 1 µg/mL; in the test on Candida albicans [13], 1 µg/mL; in the test with Candida albicans [14] it was 2 µg/mL. Also, the “fractional inhibitory concentration index (FICI)” value with Candida albicans [7] is 0.093; in the test with Candida albicans [8], 0.093; in the test on Candida albicans [15], 0.093; in the test with Candida albicans [16] it was 0.063; in the test on Candida albicans [17], 0.039; in the test with Candida albicans [18], 0.07. In addition, the “fractional inhibitory concentration index (FICI)” value with Candida albicans [19] was determined as 0.093; in the test with Candida albicans [20] it was 0.063; with Candida albicans [21], 0.039; with Candida albicans [22] it was 0.07.

These data come from ChEMBL document CHEMBL4043214, “Design, synthesis, and SAR study of 3-(benzo[d][1,3]dioxol-5-yl)-N-benzylpropanamide as novel potent synergists against fluconazole-resistant Candida albicans” (2017).
